Converted amounts (≈) assume the structure as drawn. Read-outs that look alike come from different tables or passages of the source. Positions of bridges follow the written chain, without caps; N, C: chain ends. Non-standard residues stand in square brackets, D forms with d. Residues, ends and D or L forms follow the SMILES beside them. No end group written: not given here. Dab = NCC[C@H](N)C(=O)O
Key:
B. cinerea = settings: SFM + 2 mM CaCl2
Botrytis cinerea T-4 = settings: for MIC (μM) SFM: Table 18, SFM; for MIC (μM) (SFM + 2 mM CaCl2): Table 18, SFM + 2 mM CaCl2; for MIC (μM) (SFM + 100 mM KCl): Table 18, SFM + 100 mM KCl; for MIC (μM) (SFM + 100 mM NaCl): Table 18, SFM + 100 mM NaCl
[1] = test system: Fusarium graminearum PH-1; type: cell-based; settings: MIC Day 1; 96-well plate, resazurin cell viability
Botrytis cinerea T4 = type: cell-based
[2] = test system: Zymoseptoria tritici IPO323; type: cell-based

| Molecule | F. graminearum PH-1 MIC Day1 [1] | B. cinerea T4 MIC Day1 (Botrytis cinerea T4) | Z. tritici IPO323 MIC Day 1 [2] | Z. tritici IPO323 MIC Day 7 [2] | Z. tritici IPO323 MIC Day 14 [2] | other results |
| --- | --- | --- | --- | --- | --- | --- |
| NCC[C@H](NC(=O)CNC(=O)[C@@H](N)Cc1ccccc1)C(=O)N[C@@H](CS)C(=O)N[C@@H](CCN)C(=O)NCC(=O)N[C@@H](Cc1ccccc1)C(=O)N[C@@H](CCN)C(=O)N[C@@H](CCN)C(=O)N[C@@H](CCN)C(=O)N[C@@H](CS)C(=O)N[C@@H](Cc1ccccc1)C(=O)N[C@@H](CS)C(=O)N[C@@H](Cc1c[nH]c2ccccc12)C(=O)N[C@@H](CCN)C(=O)N[C@@H](Cc1c[nH]c2ccccc12)C(=O)N[C@@H](CS)C(=O)O [GMA4C_V5, FG(Dab)C(Dab)GF(Dab)(Dab)(Dab)CFCW(Dab)WC] (H-FG[Dab]C[Dab]GF[Dab][Dab][Dab]CFCW[Dab]WC-OH; N-terminus assumed) |  |  |  |  |  | SFM + 2 mM CaCl2 MIC (B. cinerea; Table 4, B. cinerea): >6 (very μM; SFM + 2 mM CaCl2 MIC (B. cinerea; Table 10, values repeat Table 4 (B. cinerea)): >6 (very μM |
| CC(C)C[C@@H]1NC(=O)[C@@H](NC(=O)[C@H](C)NC(=O)CN)CSSC[C@@H](C(=O)N[C@@H](Cc2ccc(O)cc2)C(N)=O)NC(=O)[C@H](Cc2c[nH]cn2)NC(=O)[C@H](CCCNC(=N)N)NC(=O)[C@H](Cc2ccc(O)cc2)NC(=O)[C@H](Cc2ccc(O)cc2)NC(=O)[C@H](Cc2c[nH]c3ccccc23)NC(=O)[C@H](Cc2ccccc2)NC(=O)[C@H](Cc2ccccc2)NC(=O)CNC(=O)[C@H](Cc2ccc(O)cc2)NC(=O)[C@H](Cc2c[nH]cn2)NC(=O)[C@H](CCCCN)NC(=O)[C@H](CO)NC(=O)[C@H](Cc2c[nH]cn2)NC(=O)[C@H](CCCNC(=N)N)NC(=O)[C@H](CC(N)=O)NC(=O)[C@H](CCCCN)NC1=O [GMAOe1C_V4] (H-GACLKNRHSKHYGFFWYYRHCY-NH2; disulfide 3-21; N-terminus assumed) |  |  |  |  |  | MIC (μM) SFM (Botrytis cinerea T-4): 1.5 µM (≈ 4.25 µg/mL); MIC (μM) (SFM + 2 mM CaCl2) (Botrytis cinerea T-4): 6 to 12 µM; MIC (μM) (SFM + 100 mM KCl) (Botrytis cinerea T-4): 6 to 12 µM; MIC (μM) (SFM + 100 mM NaCl) (Botrytis cinerea T-4): 6 µM |
| CC[C@H](C)[C@@H]1NC(=O)[C@H](CCCNC(=N)N)NC(=O)[C@@H](NC(=O)[C@H](CCCNC(=N)N)NC(=O)CNC(=O)[C@@H](N)CO)CSSC[C@@H](C(N)=O)NC(=O)[C@H](CC(N)=O)NC(=O)[C@H](CCCCN)NC(=O)[C@H]([C@@H](C)O)NC(=O)[C@H](Cc2ccccc2)NC(=O)[C@H](Cc2ccc(O)cc2)NC(=O)[C@H](Cc2c[nH]c3ccccc23)NC(=O)[C@H](CCCNC(=N)N)NC(=O)[C@H](Cc2ccccc2)NC(=O)[C@H](CC(C)C)NC1=O [GMA1C_V3] (H-SGRCRILFRWYFTKNC-NH2; disulfide 4-16; N-terminus assumed) |  |  |  |  |  | MIC (μM) SFM (Botrytis cinerea T-4): 1.5 µM (≈ 3.07 µg/mL); MIC (μM) (SFM + 2 mM CaCl2) (Botrytis cinerea T-4): 6 µM; MIC (μM) (SFM + 100 mM KCl) (Botrytis cinerea T-4): >12 µM; MIC (μM) (SFM + 100 mM NaCl) (Botrytis cinerea T-4): 3 µM |
| PD104.1.1: Eucalyptus grandis wild-type defensin SEQ ID NO: 637 with N-terminal alanine, expressed in Pichia pastoris (AICKKPSKFFKGACGRDADCEKACDQENWPGGVCVPFLRCECQRSC; cysteine pairing not given here; also: N-terminal alanine added, unclear whether it is the first A of the chain; listed as Eucalyptus grandis) | >12 µM | >12 µM | >12 µM | >12 µM | >12 µM |  |
| PD119.1.1: Setaria italica wild-type defensin SEQ ID NO: 702 with N-terminal alanine, expressed in Pichia pastoris (RHCLSQSHTFKGLCFSSENCASVCKSEKFPGGQCQMHGASRKCFCKVVC; N-terminal alanine added; listed as Setaria italica) | 1.5 µM | 4.5 µM | 2.5 µM | 6 µM | 12 µM |  |
| PD82.1.1: Pinus sylvestris wild-type defensin SEQ ID NO: 538 with N-terminal alanine, expressed in Pichia pastoris (RTCLSKSHRFHGYCVRSSSCKEICQTERFLSGECRHTHLGNRRCFCEKPC; N-terminal alanine added; listed as Pinus sylvestris) | 1.5 µM | 1.125 µM | 0.625 µM | 2 µM | 3.5 µM |  |
| PD126.1.1: wild-type defensin-like protein SEQ ID NO: 730 with N-terminal alanine, expressed in Pichia pastoris (KLCERRSKTWTGWCAKTSHCNKQCKDWERVEHGACHGEFLEKPVSAISNAHCKISF; N-terminal alanine added; listed as Prunus armeniaca) | >12 µM | >12 µM | >12 µM | >12 µM | >12 µM |  |
| PD88.1.1: Fraxinus excelsior wild-type defensin SEQ ID NO: 565 with N-terminal alanine, expressed in Pichia pastoris (KHCAKLSKGWHGFCAPHKCSRYCIHHEGAYDGACLKHHHSKHIGCYCYYRHC; N-terminal alanine; Fraxinus excelsior) | >12 µM | 0.75 µM | 1.5 µM | 3 µM | 4 µM |  |
| PD118.1.1: Malus domestica wild-type defensin SEQ ID NO: 697 with N-terminal alanine, expressed in Pichia pastoris (KICEFPSTLFKGLCFSSNNCKHTCRKEQFTRGKCSLLTRTCMCTKKC; N-terminal alanine added; listed as Malus domestica) | 1.5 µM | 1.5 µM | 1.5 µM | 2 µM | 3 µM |  |
| PD85.1.1: Panax ginseng wild-type defensin SEQ ID NO: 551 with N-terminal alanine, expressed in Pichia pastoris (KLCEKASLTWSGKCGNTQNCDKQCQNWESAKHGACHKRPTWKCFCYSDC; N-terminal alanine added; Panax ginseng) | >12 µM | >12 µM | 0.625 µM | 1.75 µM | 10 µM |  |
| PD89.1.2: Crambe maritima wild-type defensin SEQ ID NO: 569 with N-terminal alanine, expressed in Pichia pastoris (KLCRKPSGTWSGLCANSDSCRKQCINLEKAKDGSCKYKFPAHKCFCYY; N-terminal alanine; listed as Crambe maritima) | 12 µM | 2.5 µM | 1.5 µM | 6 µM | 12 µM |  |
| PD92.1.1: Trifolium pratense wild-type defensin SEQ ID NO: 583 with N-terminal alanine, expressed in Pichia pastoris (RKCESKRRWIYGNCLSDEKCASDCLVKGFLFGKCRGYDNRCYCKKPRC; N-terminal alanine; Trifolium pratense) | 3 µM | 3 µM | 0.75 µM | 1.75 µM | 2.5 µM |  |
| PD97.1.1: Rubus chingii wild-type defensin SEQ ID NO: 608 with N-terminal alanine, expressed in Pichia pastoris (protein, listed as Rubus chingii, N-terminal alanine) GACPLVSKRSKTWSGFCGSSNNCNKQCRSWESAQHGACHNTYKTVLGVKVISGRACFCYFCKKHT | 1.5 µM | 1.25 µM | 0.75 µM | 1.5 µM | 1.5 µM | MIC against Z. tritici on day 1 [2]: 0.75 µM; MIC against Z. tritici on day 7 [2]: 1.5 µM; MIC against Z. tritici on day 14 [2]: 1.5 µM |
| PD91.1.1: Setaria viridis wild-type defensin SEQ ID NO: 578 with N-terminal alanine, expressed in Pichia pastoris (protein, listed as Setaria viridis, N-terminal alanine) AYMCTTQNRFFHGRCVNNLNCASSCVHGRLGTGGHCATRKRSAADPGVDIDWVWNRRICVCVFQC | >12 µM | >12 µM | 6 µM | >6 µM | >6 µM |  |
| PD127.1.1: wild-type defensin-like protein SEQ ID NO: 732 with N-terminal alanine, expressed in Pichia pastoris (protein, listed as Potentilla micrantha, N-terminal alanine added) GACPLVQKRSKTWSGFCGSSNNCDKQCRTWEKAKHGACHATGDLKGTPRLKLRSCHARRSKDH | >12 µM | >12 µM | >12 µM | >12 µM | >12 µM |  |
